Source: US7691901B2, “Carotenoid analogs or derivatives for the inhibition and amelioration of inflammation” (Cardax Pharmaceuticals Inc., priority 2004, dated 2010)

System: lipid peroxidation products
Assay: Thioglycollate/Zymosan-induced peritonitis model: lipid oxidation products in peritoneal lavage by electrospray ionization tandem mass spectrometry
Format: in vivo, mice
Conditions: for 13-HODE MEAN / 13-HODE MEDIAN / Prostaglandin F2α (PGF2α) MEAN / Prostaglandin F2α (PGF2α) MEDIAN / 9-HETE/AA (ratio) MEAN / 9-HETE/AA (ratio) MEDIAN / 9-HODE MEAN / 9-HODE MEDIAN / 9-HETE MEAN / 9-HETE MEDIAN / Linoleic Acid MEAN / Linoleic Acid MEDIAN / Arachidonic Acid MEAN / Arachidonic Acid MEDIAN / PGF2a/AA (ratio) MEAN / PGF2a/AA (ratio) MEDIAN / 13-HODE/AA (ratio) MEAN / 13-HODE/AA (ratio) MEDIAN / 9-HODE/LA (ratio) MEAN / 9-HODE/LA (ratio) MEDIAN / 11-HETE MEAN / 11-HETE MEDIAN / 5-HETE MEAN / 5-HETE MEDIAN / 11-HETE/AA (ratio) MEAN / 11-HETE/AA (ratio) MEDIAN / 5-HETE/AA (ratio) MEAN / 5-HETE/AA (ratio) MEDIAN: 500 mg/kg oral gavage
Protocol: Thioglycollate/Zymosan—Induced Peritonitis Model: Wild-type mice were administered either 500 mg/kg body weight of disodium disuccinate astaxanthin (ddAst/Cardax™) in an oil emulsion vehicle, or normal saline (NS) as a negative control, by oral gavage at 24 hours intervals beginning 7 days prior to the induction of peritonitis. Peritonitis was induced experimentally as follows: mice were injected intraperitoneally with 1 ml of 4% by weight thioglycollate (Tg) broth, to induce the recruitment of proinflammatory cells to the peritoneum. Either 16 hours or 72 hours after recruitment, approximately half of the mice were injected intraperitoneally with 250 mg/kg body weight of zymosan (Z) for a further 4 hours. The mice not receiving zymosan underwent no further treatment. Peritoneal lavage was performed in control animals or animals treated with (ddAst) 16 hours post Tg injection, or 20 h following the combination of both Tg injection (16 hours) followed by Z injection (4 hours), as indicated (Tg/Z). Peritoneal lavages were performed with phosphate-buffered saline containing antioxidant (0.1 mM butylated hydroxytoluene (BHT)) and 2 mM of the metal chelator diethylenetriamine pentaacetic acid (DTPA) according to established practices in the art. The lavage suspensions were transferred to screw-capped tubes under an argon atmosphere, and immediately centrifuged at 1000 rpm in a table top microcentrifuge for 10 min at 4° C. to remove whole cells and debris. All analyses of lipid peroxidation products was performed on cell-free lavage supernatants. Cell pellets were resuspended in phosphate-buffered saline containing 0.1 mM BHT and 0.1 mM DTPA, and differential cell counts (macrophages, monocytes, eosinophils, lymphocytes, neutrophils, and erythrocytes) were performed on cytospun preparations of isolated cells according to established procedures in the art.
Electrospray ionization tandem mass spectrometry was used to simultaneously quantify individual molecular species of HETEs, HPETEs, the prostaglandin PGF2α, F2-isoprostanoids, hydroxy- and hydroperoxy-octadecadienoic acids (H(P)ODEs), and their precursors, arachidonic acid (AA) and linoleic acid (LA). Additionally, the molar ratios of o-tyrosine (oY/F). were measured.

[1] = 16 Hour Thioglycollate/4 Hour Zymosan, P-VALUE 0.165
[2] = 16 Hour Thioglycollate/4 Hour Zymosan, P-VALUE 0.250
[3] = 16 Hour Thioglycollate/4 Hour Zymosan, P-VALUE 0.272 NP
[4] = 16 Hour Thioglycollate/4 Hour Zymosan, P-VALUE 0.299
[5] = 16 Hour Thioglycollate/4 Hour Zymosan, P-VALUE 0.354
[6] = 16 Hour Thioglycollate/4 Hour Zymosan, P-VALUE 0.557
[7] = 16 Hour Thioglycollate/4 Hour Zymosan, P-VALUE 0.685 NP
[8] = 16 Hour Thioglycollate/4 Hour Zymosan, P-VALUE 0.772 NP
[9] = 16 Hour Thioglycollate/4 Hour Zymosan, P-VALUE 0.862 NP
[10] = 16 Hour Thioglycollate/4 Hour Zymosan, P-VALUE 0.900
[11] = 16 Hour Thioglycollate/4 Hour Zymosan, P-VALUE 0.954 NP
[12] = 16 Hour Thioglycollate/4 Hour Zymosan, P-VALUE 1.000 NP
[13] = 16 Hour Thioglycollate/4 Hour Zymosan
[14] = 16 Hour Thioglycollate, P-VALUE 0.018
[15] = 16 Hour Thioglycollate, P-VALUE 0.040
[16] = 16 Hour Thioglycollate, P-VALUE 0.096
[17] = 16 Hour Thioglycollate, P-VALUE 0.120
[18] = 16 Hour Thioglycollate, P-VALUE 0.172
[19] = 16 Hour Thioglycollate, P-VALUE 0.227 NP
[20] = 16 Hour Thioglycollate, P-VALUE 0.318 NP
[21] = 16 Hour Thioglycollate, P-VALUE 0.372 NP
[22] = 16 Hour Thioglycollate, P-VALUE 0.564 NP
[23] = 16 Hour Thioglycollate, P-VALUE 0.793 NP
[24] = 16 Hour Thioglycollate, P-VALUE 0.875 NP
[25] = 16 Hour Thioglycollate, P-VALUE 0.958 NP
[26] = 16 Hour Thioglycollate, P-VALUE 0.982
[27] = 16 Hour Thioglycollate, P-VALUE 0.986
[28] = 72 Hour Thioglycollate/4 Hour Zymosan, P-VALUE 0.001 NP
[29] = 72 Hour Thioglycollate/4 Hour Zymosan, P-VALUE 0.002 NP
[30] = 72 Hour Thioglycollate/4 Hour Zymosan, P-VALUE 0.006
[31] = 72 Hour Thioglycollate/4 Hour Zymosan, P-VALUE 0.008
[32] = 72 Hour Thioglycollate/4 Hour Zymosan, P-VALUE 0.010
[33] = 72 Hour Thioglycollate/4 Hour Zymosan, P-VALUE 0.018 NP
[34] = 72 Hour Thioglycollate/4 Hour Zymosan, P-VALUE 0.056 NP
[35] = 72 Hour Thioglycollate/4 Hour Zymosan, P-VALUE 0.118 NP
[36] = 72 Hour Thioglycollate/4 Hour Zymosan, P-VALUE 0.271
[37] = 72 Hour Thioglycollate/4 Hour Zymosan, P-VALUE 0.385 NP
[38] = 72 Hour Thioglycollate/4 Hour Zymosan, P-VALUE 0.629

CC1=C(/C=C/C(C)=C/C=C/C(C)=C/C=C/C=C(C)/C=C/C=C(C)/C=C/C2=C(C)C(=O)C(OC(=O)CCC(=O)O)CC2(C)C)C(C)(C)CC(OC(=O)CCC(=O)O)C1=O (stereo not drawn) [Cardax, disodium disuccinate astaxanthin]
13-HODE MEAN [1]: 5.689 pmol
13-HODE MEDIAN [1]: 4.768 pmol
Prostaglandin F2α (PGF2α) MEAN [2]: 0.038 pmol
Prostaglandin F2α (PGF2α) MEDIAN [2]: 0.035 pmol
9-HETE/AA (ratio) MEAN [3]: 0.529
9-HETE/AA (ratio) MEDIAN [3]: 0.472
9-HODE MEAN [4]: 2.767 pmol
9-HODE MEDIAN [4]: 2.825 pmol
9-HETE MEAN [5]: 0.559 pmol
9-HETE MEDIAN [5]: 0.612 pmol
Linoleic Acid MEAN [6]: 13158 pmol
Linoleic Acid MEDIAN [6]: 10509 pmol
Arachidonic Acid MEAN [7]: 1208.5 pmol
Arachidonic Acid MEDIAN [7]: 1039.6 pmol
PGF2a/AA (ratio) MEAN [7]: 0.038
PGF2a/AA (ratio) MEDIAN [7]: 0.025
13-HODE/AA (ratio) MEAN [8]: 0.456
13-HODE/AA (ratio) MEDIAN [8]: 0.376
9-HODE/LA (ratio) MEAN [9]: 0.245
9-HODE/LA (ratio) MEDIAN [9]: 0.201
11-HETE MEAN [9]: 0.654 pmol
11-HETE MEDIAN [9]: 0.450 pmol
5-HETE MEAN [10]: 1.082 pmol
5-HETE MEDIAN [10]: 0.953 pmol
11-HETE/AA (ratio) MEAN [11]: 0.669
11-HETE/AA (ratio) MEDIAN [11]: 0.453
5-HETE/AA (ratio) MEAN [12]: 0.997
5-HETE/AA (ratio) MEDIAN [12]: 0.770
5-oxo-ETE (pmol), MEAN [13]: 0.085 pmol
5-oxo-ETE (ratio), MEAN [13]: 0.080 ratio
8-iso-F2a (pmol), MEAN [13]: 0.012 pmol
8-iso-F2a/AA (ratio), MEAN [13]: 0.011 ratio
5-oxo-ETE (pmol), MEDIAN [13]: 0.083 pmol
5-oxo-ETE (ratio), MEDIAN [13]: 0.081 ratio
8-iso-F2a (pmol), MEDIAN [13]: 0.000 pmol
8-iso-F2a/AA (ratio), MEDIAN [13]: 0.000 ratio
Arachidonic Acid MEAN [14]: 1791.6 pmol
Arachidonic Acid MEDIAN [14]: 1854.3 pmol
Linoleic Acid MEAN [15]: 22739 pmol
Linoleic Acid MEDIAN [15]: 22907 pmol
13-HODE/AA (ratio) MEAN [16]: 0.905
13-HODE/AA (ratio) MEDIAN [16]: 0.920
9-HODE MEAN [17]: 5.367 pmol
9-HODE MEDIAN [17]: 3.831 pmol
Prostaglandin F2α (PGF2α) MEAN [18]: 0.037 pmol
Prostaglandin F2α (PGF2α) MEDIAN [18]: 0.033 pmol
9-HETE/AA (ratio) MEAN [19]: 0.476
9-HETE/AA (ratio) MEDIAN [19]: 0.448
5-HETE MEAN [20]: 0.334 pmol
5-HETE MEDIAN [20]: 0.255 pmol
11-HETE MEAN [21]: 0.434 pmol
11-HETE MEDIAN [21]: 0.329 pmol
9-HODE/LA (ratio) MEAN [22]: 0.292
9-HODE/LA (ratio) MEDIAN [22]: 0.255
11-HETE/AA (ratio) MEAN [23]: 0.239
11-HETE/AA (ratio) MEDIAN [23]: 0.195
5-HETE/AA (ratio) MEAN [24]: 0.218
5-HETE/AA (ratio) MEDIAN [24]: 0.151
9-HETE MEAN [25]: 0.826 pmol
9-HETE MEDIAN [25]: 0.718 pmol
13-HODE MEAN [26]: 18.838 pmol
13-HODE MEDIAN [26]: 15.191 pmol
PGF2a/AA (ratio) MEAN [27]: 0.034
PGF2a/AA (ratio) MEDIAN [27]: 0.018
5-oxo-ETE (pmol), MEAN (16 Hour Thioglycollate): 0.128 pmol
5-oxo-ETE (ratio), MEAN (16 Hour Thioglycollate): 0.056 ratio
8-iso-F2a (pmol), MEAN (16 Hour Thioglycollate): 0.052 pmol
8-iso-F2a/AA (ratio), MEAN (16 Hour Thioglycollate): 0.044 ratio
5-oxo-ETE (pmol), MEDIAN (16 Hour Thioglycollate): 0.078 pmol
5-oxo-ETE (ratio), MEDIAN (16 Hour Thioglycollate): 0.067 ratio
8-iso-F2a (pmol), MEDIAN (16 Hour Thioglycollate): 0.069 pmol
8-iso-F2a/AA (ratio), MEDIAN (16 Hour Thioglycollate): 0.034 ratio
Arachidonic Acid MEAN [28]: 3554.3 pmol
Arachidonic Acid MEDIAN [28]: 2429.5 pmol
5-HETE/AA (ratio) MEAN [29]: 0.369
5-HETE/AA (ratio) MEDIAN [29]: 0.333
9-HODE/LA (ratio) MEAN [30]: 0.132
9-HODE/LA (ratio) MEDIAN [30]: 0.134
11-HETE/AA (ratio) MEAN [31]: 0.253
11-HETE/AA (ratio) MEDIAN [31]: 0.237
PGF2a/AA (ratio) MEAN [32]: 0.011
PGF2a/AA (ratio) MEDIAN [32]: 0.012
Linoleic Acid MEAN [33]: 33183 pmol
Linoleic Acid MEDIAN [33]: 27585 pmol
9-HETE/AA (ratio) MEAN [34]: 0.253
9-HETE/AA (ratio) MEDIAN [34]: 0.244
9-HETE MEAN [35]: 0.917 pmol
9-HETE MEDIAN [35]: 0.687 pmol
13-HODE/AA (ratio) MEAN [35]: 0.229
13-HODE/AA (ratio) MEDIAN [35]: 0.186
13-HODE MEAN [36]: 7.181 pmol
13-HODE MEDIAN [36]: 6.732 pmol
5-HETE MEAN [37]: 1.236 pmol
5-HETE MEDIAN [37]: 0.997 pmol
Prostaglandin F2α (PGF2α) MEAN [38]: 0.040 pmol
Prostaglandin F2α (PGF2α) MEDIAN [38]: 0.039 pmol
